Test results published in PubChem BioAssay AID2060494 (Molecular Pharmacology Branch, DTP, NCI, 2025).

Tested on: 435261-313-R-J1-PDC complex spheroid viability
Assay: Anticancer human tumor 435261-313-R-J1-PDC patient-derived colon adenocarcinoma cell line growth inhibition [GQUAD]
Conditions: for IC50: curve of first compound; for viability, T/C: stronger effect = lower value
In short: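 Multi-cell-type spheroids of tumor cells with HUVEC and mesenchymal stem cells, treated with drug combinations. Concentrations descend in half-log steps from near clinical Cmax, or from 10 microM where Cmax is unknown; viability read-out.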
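Note: spheroids exposed to the agents for seven days before readout.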
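Throughout, for viability, T/C: percent of vehicle control viability with DMSO wells as 100%.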

**Q.** Which IC50 (second compound 0.0316 µM) does the source give for `CC(C)n1c(=O)n(C)c2cnc3cc(F)c(-c4ccc(OCCCN5CCCCC5)nc4)cc3c21` + CN(C)c1ccc(Nc2c3ccc(NC(=O)CCN4CCCC4)cc3nc3cc(NC(=O)CCN4CCCC4)ccc23)cc1 here?
**A.** > 10 µM

**Q.** What about the IC50 (second compound 0.1 µM) of the same compound?
**A.** 7 µM

**Q.** And the IC50 (second compound 0.316 µM)?
**A.** 6.84 µM

**Q.** What about the IC50 (second compound 1 µM) of the same compound?
**A.** 7.58 µM

**Q.** And the IC50 (second compound 3.16 µM)?
**A.** 0.167 µM

**Q.** And the IC50 (second compound 10 µM)?
**A.** 0.0604 µM

**Q.** And the viability, T/C (second compound 0.0316 µM, first compound 0.0316 µM)?
**A.** 127%

**Q.** What about the viability, T/C (second compound 0.0316 µM, first compound 0.1 µM) of the same compound?
**A.** 103%

**Q.** And the viability, T/C (second compound 0.0316 µM, first compound 0.316 µM)?
**A.** 92.8%

**Q.** What about the viability, T/C (second compound 0.0316 µM, first compound 1 µM) of the same compound?
**A.** 98.6%

**Q.** And the viability, T/C (second compound 0.0316 µM, first compound 3.16 µM)?
**A.** 89.2%

**Q.** What about the viability, T/C (second compound 0.0316 µM, first compound 10 µM) of the same compound?
**A.** 59.1%

**Q.** And the viability, T/C (second compound 0.1 µM, first compound 0.0316 µM)?
**A.** 75.2%

**Q.** What about the viability, T/C (second compound 0.1 µM, first compound 0.1 µM) of the same compound?
**A.** 99.2%

**Q.** What about the viability, T/C (second compound 0.1 µM, first compound 0.316 µM) of the same compound?
**A.** 97.7%

**Q.** And the viability, T/C (second compound 0.1 µM, first compound 1 µM)?
**A.** 71.3%

**Q.** And the viability, T/C (second compound 0.1 µM, first compound 3.16 µM)?
**A.** 85%

**Q.** And the viability, T/C (second compound 0.1 µM, first compound 10 µM)?
**A.** 34.4%

**Q.** What about the viability, T/C (second compound 0.316 µM, first compound 0.0316 µM) of the same compound?
**A.** 88.8%

**Q.** And the viability, T/C (second compound 0.316 µM, first compound 0.1 µM)?
**A.** 128%

**Q.** What about the viability, T/C (second compound 0.316 µM, first compound 0.316 µM) of the same compound?
**A.** 109%

**Q.** What about the viability, T/C (second compound 0.316 µM, first compound 1 µM) of the same compound?
**A.** 113%

**Q.** What about the viability, T/C (second compound 0.316 µM, first compound 3.16 µM) of the same compound?
**A.** 73.7%

**Q.** What about the viability, T/C (second compound 0.316 µM, first compound 10 µM) of the same compound?
**A.** 38.3%

**Q.** And the viability, T/C (second compound 1 µM, first compound 0.0316 µM)?
**A.** 93.3%

**Q.** What about the viability, T/C (second compound 1 µM, first compound 0.1 µM) of the same compound?
**A.** 89.9%

**Q.** And the viability, T/C (second compound 1 µM, first compound 0.316 µM)?
**A.** 63.7%

**Q.** What about the viability, T/C (second compound 1 µM, first compound 1 µM) of the same compound?
**A.** 63.7%

**Q.** What about the viability, T/C (second compound 1 µM, first compound 3.16 µM) of the same compound?
**A.** 70.3%

**Q.** What about the viability, T/C (second compound 1 µM, first compound 10 µM) of the same compound?
**A.** 40%

**Q.** What about the viability, T/C (second compound 3.16 µM, first compound 0.0316 µM) of the same compound?
**A.** 63.7%

**Q.** What about the viability, T/C (second compound 3.16 µM, first compound 0.1 µM) of the same compound?
**A.** 54.4%

**Q.** And the viability, T/C (second compound 3.16 µM, first compound 0.316 µM)?
**A.** 42.5%

**Q.** What about the viability, T/C (second compound 3.16 µM, first compound 1 µM) of the same compound?
**A.** 30.2%

**Q.** And the viability, T/C (second compound 3.16 µM, first compound 3.16 µM)?
**A.** 39%

**Q.** And the viability, T/C (second compound 3.16 µM, first compound 10 µM)?
**A.** 11.6%

**Q.** And the viability, T/C (second compound 10 µM, first compound 0.0316 µM)?
**A.** 68.4%

**Q.** And the viability, T/C (second compound 10 µM, first compound 0.1 µM)?
**A.** 36.3%

**Q.** What about the viability, T/C (second compound 10 µM, first compound 0.316 µM) of the same compound?
**A.** 14.8%

**Q.** What about the viability, T/C (second compound 10 µM, first compound 1 µM) of the same compound?
**A.** 9.87%

**Q.** And the viability, T/C (second compound 10 µM, first compound 3.16 µM)?
**A.** 4.77%

**Q.** What about the viability, T/C (second compound 10 µM, first compound 10 µM) of the same compound?
**A.** 1.9%
